Results from patent publication US6645959B1, “Method for treating postoperative ileus” (Warner-Lambert Company, priority 2000, dated 2003).
Counter-ions that a name gives are not always drawn.

Experiments:
bone marrow of rats = assay: Clastogenicity in bone marrow of rats; format: in vivo
[1] = system: AVP-induced dermal vasoconstriction; assay: AVP-induced dermal vasoconstriction in Phase 1 subjects; format: in vivo, human; conditions: subjects at 50 mg IV
rats [2] = assay: Teratogenicity in rats; format: in vivo
rats [3] = assay: Reproductive performance and fertility studies in rats; format: in vivo
[4] = system: aquaretic action (V2 receptor antagonism); assay: Aquaretic action in normal subjects (V2 receptor antagonism); format: in vivo, human
[5] = system: urinary output (V2 antagonism); assay: Urinary output and osmolality in conscious dogs (V2 antagonism); format: in vivo
[6] = system: dogs with heart failure induced by rapid right ventricular pacing; assay: Heart failure induced by rapid right ventricular pacing in dogs; format: in vivo; conditions: IV 0.1 mg/kg
dogs = conditions: dog, in vivo, 2 mg/kg
human lymphocytes = assay: Clastogenicity in human lymphocytes in vitro; format: cell-based
healthy subjects = assay: Safety in Phase 1 subjects; format: in vivo, human
From the text: These observations were considered related to antagonism of V2 receptors and not a safety concern. Vital signs (blood pressure and heart rate) were unaffected by YM087.

rats [7] = conditions: rat, in vivo, 2.5 mg/kg
female rats = conditions: 13-week oral study, all doses
[8] = system: AVP-induced pressor response (V1A antagonism); assay: Antagonism of AVP-induced pressor response in rats (oral); format: in vivo; conditions: given orally to rats
[9] = Oral pharmacokinetics in the rat; format: in vivo
From the text: (§1) There is a marked food effect with absorption reduced by >50% in dogs after a meal.

[10] = Pharmacokinetics in healthy subjects (Phase 1)
rabbits = assay: Teratogenicity in rabbits; format: in vivo
bacteria = assay: Mutagenicity in bacteria; format: cell-based
[11] = Oral pharmacokinetics in the dog; format: in vivo
From the text: as §1

[12] = system: AVP-induced pressor response (V1A antagonism); assay: Antagonism of AVP-induced pressor response in dogs (IV); format: in vivo
[13] = system: AVP-induced platelet aggregation (V1A antagonist activity); assay: AVP-induced platelet aggregation in Phase 1 subjects; format: in vivo, human; conditions: subjects at 20 mg/day orally or 2.5 mg IV
bone marrow in dogs = assay: 2- and 13-week oral toxicity studies in dogs; format: in vivo
[14] = oral 20 mg, single dose combination

Cc1nc2c([nH]1)-c1ccccc1N(C(=O)c1ccc(NC(=O)c3ccccc3-c3ccccc3)cc1)CC2 [YM087, N-[4-(2-methyl-4,5,6-tetrahydromidazo [4,5-d][1]benzazepin-6-ylcarbonyl)phenyl]biphenyl-2-carboxamide hydrochloride]
clastogenicity (bone marrow of rats): not clastogenic | AVP-induced dermal vasoconstriction [1]: Total inhibition | teratogenicity (rats [2]): not teratogenic | female fertility findings (rats [3]; females given 100 mg/kg orally for 2 weeks prior to mating with untreated males): reduced fertility index, increased implantation loss, and decreased live fetuses | reproductive performance of male rats (rats [3]; male rats): did not affect | tolerability of aquaretic effects ([4]; 120 mg QD or 60 mg BID orally or 50 mg IV, normal subjects): too uncomfortable in normal subjects to be tolerable | duration of increased urine production rate postdosing ([4]; IV 50 mg/day): ≤ 6 h | duration of increased urine production rate postdosing ([4]; IV doses up to 250 μg/kg): up to 3 hours | dose at which aquaretic action with decrease in urine osmolarity starts ([4]; IV, normal subjects): 0.05 mg/kg | dose at which aquaretic action with decrease in urine osmolarity starts ([4]; oral, normal subjects): 15 mg | urinary output ([5]; conscious dogs, oral 0.03 to 0.3 mg/kg, dose-related): increased urinary output | urinary osmolality ([5]; conscious dogs, oral 0.03 to 0.3 mg/kg, reduced from 1500): < 100 mOsm/kg H2O | effect on urinary sodium (Na) or potassium (K) excretion ([5]; unlike furosemide): little or no effect | cardiac function [6]: significantly improved the depressed cardiac function | water diuresis [6]: produced a water diuresis | toxicity in 4-week IV study (dogs): No toxicity was observed | clastogenicity (human lymphocytes): not clastogenic | overall safety (healthy subjects; approximately 250 subjects treated): no major safety concerns were identified | urinary and plasma osmolarity at higher doses (healthy subjects; higher doses, related to V2 antagonism): urinary osmolarity decreased and plasma osmolarity increased | biochemical or hematological laboratory parameters (healthy subjects; human, in vivo): No drug-related trend was observed | other adverse events (healthy subjects; human, in vivo): flushes, a sensation of cold extremities, abdominal complaints, abnormal stools, syncope, dizziness, palpitations, and postural hypotension | vital signs (blood pressure and heart rate) (healthy subjects; human, in vivo): unaffected | serious event in patient with severe congestive heart failure (healthy subjects; one patient, 80 mg/day for 4 days): generalized tonic clonic seizure | number of subjects with minor reversible decreases in white blood cell count (healthy subjects; one subject on placebo also affected): Three | most frequent adverse events (healthy subjects; regardless of treatment association): mild or moderate thirst and mild headache | toxicity in 4-week IV study (rats [7]): No toxicity was observed | uterine weights (female rats): decreased at all doses | ID50 (dose that reduced the AVP response by 50%) [8]: 0.32 mg/kg | half-life ([9]; in vivo, rats, read-out: elimination half-life (converted)): 1 h | time to peak concentrations ([9]; oral): 0.5 h | half-life ([10]; human, plasma): 4 to 5 h | bioavailability ([10]; human, plasma, oral): 43 to 59% | Tmax ([10]; human, plasma, po): ~1 h | bioavailability ([10]; human, plasma, po, 60 mg): 44% | effect of 0.5 mg IV digoxin on pharmacokinetics [10, 14]: not affected | effect of 25 mg oral captopril on pharmacokinetics [10, 14]: not affected | plasma levels after the second dose ([10]; repeated BID oral doses, 60 mg): unexpectedly high plasma levels | teratogenicity (rabbits): not teratogenic | mutagenicity (bacteria): not mutagenic | half-life ([11]; in vivo, dogs, read-out: elimination half-life (converted)): 2 h | time to peak concentrations ([11]; oral): 1 h | ID50 (dose that reduced the AVP response by 50%) [12]: 0.026 mg/kg | AVP-induced platelet aggregation [13]: Inhibition of AVP-induced platelet aggregation | peripheral blood counts (bone marrow in dogs; affected dogs, 13-week oral study): Decreased peripheral erythrocyte, leukocyte, and/or platelet counts | reversibility of bone marrow and peripheral blood changes (bone marrow in dogs; dogs): reversible
